Experiments:
[1] = Pharmacokinetic evaluation in Mice (Table 4); conditions: mouse, in vivo; for half-life: read-out: T½ (converted)
Experimental: (§1) Aza-T-dCyd was administered orally and intravenously at various concentrations to Mice, Rats and Dogs to determine the PK profile.

OVCAR-3 (ovarian) = OVCAR-3 (ovarian) xenograft model; format: in vivo; conditions: NSG mouse, (4) cycles
Description: The efficacy of Aza-T-dCyd was confirmed by tumor growth curves after administration of Aza-T-dCyd in various solid cancer xenograft models. […]

[2] = Pharmacokinetic evaluation in Mice (Table 3); format: in vivo; conditions: for AUC(0-inf) / AUC(0-t) / Cmax / Tmax / half-life: mouse, in vivo, Mice; for half-life: read-out: T½ (converted)
Experimental: as §1

GLP dog toxicology study = format: in vivo; conditions: dog, 0.15, 0.5 and 1.0 mg/kg per day
Experimental: GLP-Tox studies have been conducted in rats and dogs, with 2 cycles of QD×5d at PO.
In a GLP dog toxicology study, Aza-T-dCyd was administered at 0.15, 0.5, and 1.0 mg/kg (3, 10, and 20 mg/m^2) per day. […] The maximum tolerated dose (MTD) was between 0.5 and 1 mg/kg (10~20 mg/m^2) per day, the highest non-toxic dose (HNSTD) was 0.5 mg/kg (10 mg/m^2) per day, and the no observed adverse effect level (NOAEL) was <0.15 mg/kg (3) mg/m^2) per day.

With `Nc1ncn([C@H]2CC(O)[C@@H](CO)S2)c(=O)n1` (some centres unmarked) [Aza-T-dCyd, 4′-thio-5-aza-2′-deoxycytidine] the AUC(0-inf) ([1]; Table 4, IV 1 mg/kg) was 406 ng·h/mL, the AUC(0-t) ([1]; Table 4, IV 1 mg/kg) was 370 ng·h/mL and the Cmax ([1]; Table 4, IV 1 mg/kg) was 527 ng/mL. It also gave a half-life ([1]; Table 4, IV 1 mg/kg) of 36.7 min, an AUC(0-inf) ([1]; Table 4, PO 0.5 mg/kg) of 131 ng·h/mL and an AUC(0-t) ([1]; Table 4, PO 0.5 mg/kg) of 118 ng·h/mL. It also gave a Cmax ([1]; Table 4, PO 0.5 mg/kg) of 211 ng/mL, a Tmax ([1]; Table 4, PO 0.5 mg/kg) of 30 min and a half-life ([1]; Table 4, PO 0.5 mg/kg) of 18.2 min. The AUC(0-inf) ([1]; Table 4, PO 1 mg/kg) was 235 ng·h/mL, the AUC(0-t) ([1]; Table 4, PO 1 mg/kg) was 136 ng·h/mL and the Cmax ([1]; Table 4, PO 1 mg/kg) was 138 ng/mL. The Tmax ([1]; Table 4, PO 1 mg/kg) was 15 min, the half-life ([1]; Table 4, PO 1 mg/kg) was 103 min and the AUC(0-inf) ([1]; Table 4, PO 3 mg/kg) was 443 ng·h/mL. For the same molecule, the AUC(0-t) ([1]; Table 4, PO 3 mg/kg) was 303 ng·h/mL, the Cmax ([1]; Table 4, PO 3 mg/kg) was 256 ng/mL and the Tmax ([1]; Table 4, PO 3 mg/kg) was 15 min. The half-life ([1]; Table 4, PO 3 mg/kg) was 66.6 min, the AUC(0-inf) ([1]; Table 4, PO 10 mg/kg) was 1460 ng·h/mL and the AUC(0-t) ([1]; Table 4, PO 10 mg/kg) was 1340 ng·h/mL. It also gave a Cmax ([1]; Table 4, PO 10 mg/kg) of 863 ng/mL, a Tmax ([1]; Table 4, PO 10 mg/kg) of 20 min and a half-life ([1]; Table 4, PO 10 mg/kg) of 69 min. The “Optimal T/C (%) (test/control)” value (OVCAR-3 (ovarian); 0.5 mg/kg) was 40%, the “Optimal T/C (%) (test/control)” value (OVCAR-3 (ovarian); 1 mg/kg) was 4% and the oral bioavailability ([2]; mice) was “orally bioavailable”. It also gave an AUC(0-inf) ([2]; Table 3, IV 1 mg/kg) of 269 ng·h/mL, an AUC(0-t) ([2]; Table 3, IV 1 mg/kg) of 257 ng·h/mL and a Cmax ([2]; Table 3, IV 1 mg/kg) of 341 ng/mL. It also gave a Tmax ([2]; Table 3, IV 1 mg/kg) of 4.98 min, a half-life ([2]; Table 3, IV 1 mg/kg) of 30.2 min and an AUC(0-inf) ([2]; Table 3, PO 0.5 mg/kg) of 68.5 ng·h/mL. It also gave an AUC(0-t) ([2]; Table 3, PO 0.5 mg/kg) of 62.4 ng·h/mL, a Cmax ([2]; Table 3, PO 0.5 mg/kg) of 51.8 ng/mL and a Tmax ([2]; Table 3, PO 0.5 mg/kg) of 18 min. The half-life ([2]; Table 3, PO 0.5 mg/kg) was 42.1 min, the AUC(0-inf) ([2]; Table 3, PO 1 mg/kg) was 112 ng·h/mL and the AUC(0-t) ([2]; Table 3, PO 1 mg/kg) was 106 ng·h/mL. It also gave a Cmax ([2]; Table 3, PO 1 mg/kg) of 103 ng/mL, a Tmax ([2]; Table 3, PO 1 mg/kg) of 18 min and a half-life ([2]; Table 3, PO 1 mg/kg) of 37.7 min. The AUC(0-inf) ([2]; Table 3, PO 3 mg/kg) was 931 ng·h/mL, the AUC(0-t) ([2]; Table 3, PO 3 mg/kg) was 919 ng·h/mL and the Cmax ([2]; Table 3, PO 3 mg/kg) was 576 ng/mL. The Tmax ([2]; Table 3, PO 3 mg/kg) was 27 min, the half-life ([2]; Table 3, PO 3 mg/kg) was 49.4 min and the AUC(0-inf) ([2]; Table 3, PO 10 mg/kg) was 2600 ng·h/mL. The AUC(0-t) ([2]; Table 3, PO 10 mg/kg) was 2580 ng·h/mL, the Cmax ([2]; Table 3, PO 10 mg/kg) was 1930 ng/mL and the Tmax ([2]; Table 3, PO 10 mg/kg) was 27 min. The half-life ([2]; Table 3, PO 10 mg/kg) was 66.6 min and the target organs (GLP dog toxicology study) was “bone marrow, thymus, gastrointestinal tract, tonsils, and testes”.
